Columns and labels:
CYP1A1/2 = test: ethoxyresorufin deethylation activity in human hepatic microsome
Protocol: (§1) 4-2. Effect of the Oxazole Compound (I) on the Enzymatic Activity of Each Molecular Species of Cytochrome P450 (CYP)
(§2) Basic reaction composition (0.5 ml) was consisting of microsome protein 0.2-1 mg/ml, 100 mM phosphate buffer (pH 7.4), 0.1 mM EDTA, NADPH generation system (2.5 mM β-NADP, 25 mM glucose-6-phosphate, 2 units glucose-6-phosphate dehydrogenase and 10 mM magnesium chloride), with or without each substrate and inhibitor, and the reaction was performed at 37° C. for 10-60 minutes. Each substrate and its concentration used were 7-ethoxyresorufln (0.5 μM), coumarin (2 μM), 7-benzyloxyresorufin (1.5 μM), tolbutamide (400 μM), S-mephenyloin (100 μM), bufuralol (20 μM), chlorzoxazone (100 μM), testosterone (100 μM) and nifedipine (50 μM).
(§3) Generated products after the metabolic response were measured by using high performance liquid chromatography after extraction.

[1] = test system: hepatic microsomal enzyme; test: In vitro metabolism, monkey hepatic microsome; assay type: in vitro ADME; conditions: 100 μM, microsome protein 1 mg/ml, 37° C., 2 hours
Protocol: (§4) 4-1. In Vitro Metabolism of Oxazole Compound (I)
(§5) Studies on in vitro metabolism of oxazole compound (I) (compound (A-R)) were performed using hepatic microsomal enzyme of human and various animals (mouse, rat, dog, rabbit and monkey). Human microsome was obtained from Attached Primate Research Institute, HAB Discussion Group (Chiba, Japan). […] The reaction was terminated by adding organic solvent (acetonitrile or ethyl acetate) and generated metabolites were extracted. The extracted metabolites were detected by using high performance liquid chromatography and liquid chromatograph electrospray ionization tandem mass spectrometry to confirm amount of generation.

CYP2A6 = target: T1, CYP2A6 (Homo sapiens, UniProt P11509); test: coumarin hydroxylation activity in human hepatic microsome
T1 sequence (P11509 1-494): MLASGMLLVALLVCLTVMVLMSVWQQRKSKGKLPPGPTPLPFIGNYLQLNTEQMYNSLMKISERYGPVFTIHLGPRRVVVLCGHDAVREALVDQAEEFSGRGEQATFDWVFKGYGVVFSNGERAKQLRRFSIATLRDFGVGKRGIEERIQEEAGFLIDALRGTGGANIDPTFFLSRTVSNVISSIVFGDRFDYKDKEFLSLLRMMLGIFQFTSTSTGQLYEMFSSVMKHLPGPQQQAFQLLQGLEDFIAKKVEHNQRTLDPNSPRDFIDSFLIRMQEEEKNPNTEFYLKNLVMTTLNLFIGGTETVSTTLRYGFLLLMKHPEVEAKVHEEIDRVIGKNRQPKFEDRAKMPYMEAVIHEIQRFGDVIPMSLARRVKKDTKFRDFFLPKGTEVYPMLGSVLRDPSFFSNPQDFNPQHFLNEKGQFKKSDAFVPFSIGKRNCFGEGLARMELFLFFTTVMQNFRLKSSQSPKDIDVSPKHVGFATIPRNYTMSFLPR
Protocol: as §1, §2, §3

[2] = test system: hepatic microsomal enzyme; test: In vitro metabolism, human hepatic microsome; assay type: in vitro ADME; conditions: 100 μM, microsome protein 1 mg/ml, 37° C., 2 hours
Protocol: as §4, §5

CYP2C8/9 = test: tolbutamide hydroxylation activity in human hepatic microsome
Protocol: as §1, §2, §3

[3] = test system: Experimental mouse tuberculosis model; test: In vivo experiments for intermittent administration, experimental mouse tuberculosis model; conditions: three times a week, twice a week or once a week; alone or in combination with conventional antituberculous drugs
Excerpt: In Vivo Experiments for Intermittent Administration

[4] = test system: clinical isolates of tubercle bacillus, TBT-9 and TBT-14; test: In vitro combined effect: MIC on 7H11 agar plates and FIC index; assay type: cell-based; conditions: 37° C., 2 weeks; for MIC: Bacillus, 336 h, each agent alone
Protocol: In Vitro Experiment on the Combined Effect of an Oxazole Compound (I) and Another Agent
A suspension of tubercle bacillus was prepared at about 10^6 CFU/ml (for clinical isolates of tubercle bacillus, TBT-9 and TBT-14). About 10 μl aliquots thereof were inoculated on respective plates by using a multipoint inoculator.

[5] = test system: intracellular parasitic tubercle bacillus (M. tuberculosis H37Rv) in THP-1 cells; test: Effect on intracellular parasitic tubercle bacillus in THP-1 cells; assay type: cell-based
[6] = test system: hepatic microsomal enzyme; test: In vitro metabolism, rabbit hepatic microsome; assay type: in vitro ADME; conditions: 100 μM, microsome protein 1 mg/ml, 37° C., 2 hours
Protocol: as §4, §5

CYP2B6 = target: T2, CYP2B6 (Homo sapiens, UniProt P20813); test: 7-benzyloxyresorufin debenzylation activity in human hepatic microsome; conditions: microsomes, pH 7.4
T2 sequence (P20813 1-491): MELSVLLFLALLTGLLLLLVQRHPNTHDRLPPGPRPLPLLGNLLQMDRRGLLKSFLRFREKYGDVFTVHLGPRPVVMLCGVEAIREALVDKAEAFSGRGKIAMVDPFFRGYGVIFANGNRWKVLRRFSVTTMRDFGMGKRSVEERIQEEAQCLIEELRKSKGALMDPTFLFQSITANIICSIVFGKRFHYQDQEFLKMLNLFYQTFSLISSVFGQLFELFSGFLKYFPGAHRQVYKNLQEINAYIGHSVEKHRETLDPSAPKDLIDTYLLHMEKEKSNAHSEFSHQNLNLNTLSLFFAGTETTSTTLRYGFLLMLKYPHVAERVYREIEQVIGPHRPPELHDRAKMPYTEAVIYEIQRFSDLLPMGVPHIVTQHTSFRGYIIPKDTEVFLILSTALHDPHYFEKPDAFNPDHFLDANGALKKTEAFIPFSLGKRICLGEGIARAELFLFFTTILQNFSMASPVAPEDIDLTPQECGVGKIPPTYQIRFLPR
Protocol: as §1, §2, §3

CYP2D6 = CYP2D6 (Homo sapiens, UniProt P10635); test: bufuralol hydroxylation activity in human hepatic microsome; conditions: liver microsomes, pH 7.4, probe bufuralol (20 μM)
Sequence of CYP2D6 (P10635 whole entry): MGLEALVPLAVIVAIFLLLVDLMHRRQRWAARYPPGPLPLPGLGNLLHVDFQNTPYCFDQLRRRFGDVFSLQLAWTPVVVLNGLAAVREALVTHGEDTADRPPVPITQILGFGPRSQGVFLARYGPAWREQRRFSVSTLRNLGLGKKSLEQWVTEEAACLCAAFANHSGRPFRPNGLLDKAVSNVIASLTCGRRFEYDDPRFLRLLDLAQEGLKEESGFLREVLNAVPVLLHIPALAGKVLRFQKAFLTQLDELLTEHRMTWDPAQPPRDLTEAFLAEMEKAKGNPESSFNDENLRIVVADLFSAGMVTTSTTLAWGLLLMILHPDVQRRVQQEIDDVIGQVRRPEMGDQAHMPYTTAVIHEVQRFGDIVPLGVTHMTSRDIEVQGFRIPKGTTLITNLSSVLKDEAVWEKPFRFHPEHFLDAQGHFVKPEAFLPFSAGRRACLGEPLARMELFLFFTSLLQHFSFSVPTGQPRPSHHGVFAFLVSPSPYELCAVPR
Protocol: as §1, §2, §3

[7] = test system: each CYP enzyme (CYP1A/2, CYP2A6, CYP2B6, CYP2C8/9, CYP2C19, CYP2D6, CYP2E1 and CYP3A4); test: Summary: effect on each CYP enzyme activity in human hepatic microsome; conditions: up to 100 μM
Protocol: as §1, §2, §3

[8] = test system: hepatic microsomal enzyme; test: In vitro metabolism, dog hepatic microsome; assay type: in vitro ADME; conditions: 100 μM, microsome protein 1 mg/ml, 37° C., 2 hours
Protocol: as §4, §5

[9] = test system: hepatic microsomal enzyme; test: In vitro metabolism, rat hepatic microsome; assay type: in vitro ADME; conditions: 100 μM, microsome protein 1 mg/ml, 37° C., 2 hours
Protocol: as §4, §5

[10] = test system: hepatic microsomal enzyme; test: In vitro metabolism, mouse hepatic microsome; assay type: in vitro ADME; conditions: 100 μM, microsome protein 1 mg/ml, 37° C., 2 hours
Protocol: as §4, §5

CYP2C19 = CYP2C19 (Homo sapiens, UniProt P33261); test: S-mephenytoin hydroxylation activity in human hepatic microsome; conditions: liver microsomes, pH 7.4, probe S-mephenytoin (100 μM)
Sequence of CYP2C19 (P33261 whole entry): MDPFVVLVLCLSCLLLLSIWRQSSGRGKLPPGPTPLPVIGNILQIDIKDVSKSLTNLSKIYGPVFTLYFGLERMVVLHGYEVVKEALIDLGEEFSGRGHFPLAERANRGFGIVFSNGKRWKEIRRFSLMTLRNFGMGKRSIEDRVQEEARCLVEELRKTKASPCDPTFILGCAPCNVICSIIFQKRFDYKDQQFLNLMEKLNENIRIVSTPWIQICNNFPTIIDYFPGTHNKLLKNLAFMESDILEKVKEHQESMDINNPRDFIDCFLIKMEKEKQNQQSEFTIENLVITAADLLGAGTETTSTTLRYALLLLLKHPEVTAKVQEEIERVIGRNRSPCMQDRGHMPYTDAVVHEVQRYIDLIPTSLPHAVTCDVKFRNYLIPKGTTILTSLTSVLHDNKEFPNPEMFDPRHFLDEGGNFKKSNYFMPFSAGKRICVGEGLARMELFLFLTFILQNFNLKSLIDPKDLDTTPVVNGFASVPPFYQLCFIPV
Protocol: as §1, §2, §3

CYP2E1 = CYP2E1 (Homo sapiens, UniProt P05181); test: chlorozoxazone hydroxylation activity in human hepatic microsome; conditions: 100 μM; CYP2E1, chlorozoxazone (100 μM)
Sequence of CYP2E1 (P05181 whole entry): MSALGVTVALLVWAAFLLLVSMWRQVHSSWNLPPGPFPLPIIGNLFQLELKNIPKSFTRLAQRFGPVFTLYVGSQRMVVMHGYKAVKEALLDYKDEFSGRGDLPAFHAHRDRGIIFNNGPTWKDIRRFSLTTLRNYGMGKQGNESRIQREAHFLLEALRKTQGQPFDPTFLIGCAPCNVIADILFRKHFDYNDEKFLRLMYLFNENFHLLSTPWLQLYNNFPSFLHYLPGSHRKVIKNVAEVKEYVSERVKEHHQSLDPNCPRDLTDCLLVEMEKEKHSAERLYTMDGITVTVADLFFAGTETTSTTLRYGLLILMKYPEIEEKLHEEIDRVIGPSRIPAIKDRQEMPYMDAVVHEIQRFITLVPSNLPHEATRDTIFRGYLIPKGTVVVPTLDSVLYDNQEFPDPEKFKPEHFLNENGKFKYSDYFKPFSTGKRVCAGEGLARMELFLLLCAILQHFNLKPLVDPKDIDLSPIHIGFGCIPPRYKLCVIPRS
Protocol: as §1, §2, §3

[11] = human, liver microsomes, pH 7.4, probe coumarin (2 μM), coumarin hydroxylation
[12] = combination Compound (A-R) & EB
[13] = combination Compound (A-R) & RFP
[14] = liver microsomes, pH 7.4, probe tolbutamide (400 μM), hydroxylation

## O=c1cc(-c2ccccc2)oc2c1ccc1ccccc12 [7,8-benzoflavone, reference compound]
CYP1A1/2; 100 μM, CYP1A1/2, 7-ethoxyresorufin (0.5 μM)
  Relative activity (%) for control activity: 3.8%

## C[C@]1(COc2ccc(N3CCC(Oc4ccc(OC(F)(F)F)cc4)CC3)cc2)Cn2cc([N+](=O)[O-])nc2O1 [Compound (A-R), (R)-2-methyl-6-nitro-2-{4-[4-(4-trifluoromethoxyphenoxy)piperidin-1-yl]phenoxymethyl}-2,3-dihydroimidazo[2,1-b]oxazole]
[1]
  generated metabolites: almost no generated metabolites
CYP2A6; [11]
  activity at 1 μM: 103%
  activity at 3 μM: 102%
  activity at 10 μM: 103%
[2]
  generated metabolites: almost no generated metabolites
CYP2C8/9; microsomes, pH 7.4
  activity at 1 μM: 107%
  activity at 3 μM: 111%
  activity at 10 μM: 107%
  activity at 30 μM: 108%
  activity at 100 μM: 108%
[3]
  therapeutic effect of intermittent administration compared with once a day administration: equivalent effect
[4]; line Compound (A-R) & EB
  MIC: 0.012 µg/mL
[4]; line Compound (A-R) & RFP
  MIC: 0.024 µg/mL
[4]; [12]
  MIC in combination: 0.003 µg/mL
[4]; [13]
  MIC in combination: 0.006 µg/mL
[5]; action for 2 hours
  effect in short term action: strong effect
[5]; compound (A-R) 0.1 μg/ml compared with RFP 3 μg/ml
  effect against intracellular parasitic tubercle bacillus at the lowest test dose: equivalent effect of the maximum concentration 3 μg/ml of RFP
[5]; test substance for 2 or 4 hours, bacteria collected at 72 hours
  Log reduction of bacterial counts compared with time 0 hour (FIG. 2), comparison among antituberculous drugs: stronger effect
[6]
  generated metabolites: almost no generated metabolites
CYP2B6
  activity at 1 μM: 111%
  activity at 3 μM: 109%
  activity at 10 μM: 118%
  activity at 30 μM: 113%
  activity at 100 μM: 122%
CYP2D6
  activity at 1 μM: 102%
  activity at 3 μM: 102%
  activity at 30 μM: 103%
[7]
  inhibitory action and stimulation action against each CYP enzyme activity: did not exhibit inhibitory action and stimulation action
[8]
  generated metabolites: almost no generated metabolites
CYP1A1/2; human, microsomes, pH 7.4
  activity at 1 μM: 99.8%
  activity at 10 μM: 98.4%
  activity at 30 μM: 102%
  activity at 100 μM: 98.6%
[9]
  generated metabolites: almost no generated metabolites
[10]
  generated metabolites: almost no generated metabolites
CYP2C19
  activity at 3 μM: 109%
  activity at 10 μM: 113%

## CC[C@@H](CO)NCCN[C@@H](CC)CO [EB, ethambutol, reference compound]
[4]; line Compound (A-R) & EB
  MIC: 1.56 µg/mL
[4]; [12]
  MIC in combination: 0.2 µg/mL

## CO[C@H]1/C=C/O[C@@]2(C)Oc3c(C)c(O)c4c(O)c(c(/C=N/N5CCN(C)CC5)c(O)c4c3C2=O)NC(=O)/C(C)=C\C=C\[C@H](C)[C@H](O)[C@@H](C)[C@@H](O)[C@@H](C)[C@H](OC(C)=O)[C@@H]1C [RFP, rifampicin, reference compound]
[4]; [13]
  MIC in combination: 0.05 µg/mL

## CCN(CC)C(=S)S [diethyldithiocarbamine, reference compound]
CYP2A6; 100 μM, CYP2A6, coumarin (2 μM)
  Relative activity (%) for control activity: 38.2%
CYP2E1
  Relative activity (%) for control activity: 55.0%

## Cc1nc2c([nH]1)c(=O)n(C)c(=O)n2Cc1ccco1 [furafylline, reference compound]
CYP1A1/2; human, microsomes, pH 7.4
  activity at 100 μM: 32.3%

## O=c1c(O)c(-c2ccc(O)c(O)c2)oc2cc(O)cc(O)c12 [quercetin, reference compound]
CYP2C8/9; [14]
  activity at 100 μM: 30.6%

## Nc1ccc(S(=O)(=O)Nc2ccnn2-c2ccccc2)cc1 [sulfaphenazole, reference compound]
CYP2C8/9; [14]
  activity at 100 μM: 25.5%
